Measurements as given in US20100093973A1, “POLY(AMINO ACID) COMPOUND HAVING INHIBITORY ACTIVITY ON ABSORPTION OF PHOSPHORUS AND PHOSPHORUS ABSORPTION INHIBITOR” (priority 2007, published 2010).
Structures can show the parent of a compound that is named as a salt.

How the values were obtained:
absorption of phosphorus = assay: Evaluation of efficacy as phosphorus absorption inhibitors: serum radioactivity AUC (0-120 min) after oral 32P NaH2PO4 in rats, inhibitory rate; format: in vivo; details: rats of SD line, oral dose 100 mg/5 mL/kg, 32P NaH2PO4 given orally 5 min later, serum radioactivity AUC 0-120 min vs control
Method: Seven-week-old male rats of SD line (available from SANKYO Labo-Service Co., Ltd.), as test animals, were kept and acclimatized using the usual feed (Solid CRF-1 available from ORIENTAL Yeast Co., Ltd.) and they were used in the following tests after they were fasted overnight. Each candidate substance (synthesized compound) dissolved in distilled water for injection (Otsuka Pharmaceutical Co., Ltd.) was orally administered in a dose of 100 mg/5 mL/kg or 50 mg/5 mL/kg and after 5 minutes from the administration, 3 mg/3 mL/kg, 1 MBq/kg of an NaH2PO4 solution containing ^32P (available from PerkinElmer Company) was orally administered. Subsequently, the blood was collected with the elapse of time through the caudal vein of the test animal to thus obtain the serum thereof and the radioactivity of 40 μL of the serum was determined using a liquid scintillation counter. The inhibitory rate (%) for each candidate compound was calculated on the basis of the foregoing measured values according to the following equation: […]

in vitro = format: cell-based; details: dog
Method: MDCK Cells were inoculated into wells of a 96-well plate filled with D-MEM/F12 culture medium (available from GIBCO Company) supplemented with 10% FBS (available from TISSUE CULTURE BIOLOGICALS Company). After the cultivation of the cells for 3 days in a CO2 incubator, the culture medium was removed, a culture medium, in which each candidate substance (synthesized compound) had been dissolved, was added, followed by the cultivation for one day. To each well, there was added 10 μL of Cell Count Reagent SF (available from NAKARAI TESUKU K.K.), followed by the cultivation thereof for 2 hours and the subsequent determination of the absorbance observed at a wavelength of 460 nm. The IC50 values each were calculated on the basis of these measured values.

IC50 at 1 day (in vitro)	SMILES	Inhibitory Rate (%) of Phosphorus Absorption (absorption of phosphorus)
> 10000 µg/mL	NCCCC[C@H](NC(=O)[C@H](CCCCN)NC(=O)[C@@H](N)CCCCN)C(=O)NCCCN(CCCCN(CCCNC(=O)[C@H](CCCCN)NC(=O)[C@H](CCCCN)NC(=O)[C@@H](N)CCCCN)C(=O)[C@H](CCCCN)NC(=O)[C@H](CCCCN)NC(=O)[C@@H](N)CCCCN)C(=O)[C@H](CCCCN)NC(=O)[C@H](CCCCN)NC(=O)[C@@H](N)CCCCN [Example 20, SPM(Lys)12 Hydrochloride]	60%
> 10000 µg/mL	NCCCC[C@H](N)C(=O)NCCCC[C@H](NC(=O)[C@@H](N)CCCCN)C(=O)NCCCN(CCCCN(CCCNC(=O)[C@H](CCCCNC(=O)[C@@H](N)CCCCN)NC(=O)[C@@H](N)CCCCN)C(=O)[C@H](CCCCNC(=O)[C@@H](N)CCCCN)NC(=O)[C@@H](N)CCCCN)C(=O)[C@H](CCCCNC(=O)[C@@H](N)CCCCN)NC(=O)[C@@H](N)CCCCN [Example 2, SPM(Lys)12 Hydrochloride]	52%

SMILES	IC50 at 1 day (in vitro)	Inhibitory Rate (%) of Phosphorus Absorption (absorption of phosphorus)
NCCC[C@H](N)C(=O)NCCC[C@H](N)C(=O)NCCCN(CCCCN(CCCNC(=O)[C@@H](N)CCCNC(=O)[C@@H](N)CCCN)C(=O)[C@@H](N)CCCNC(=O)[C@@H](N)CCCN)C(=O)[C@@H](N)CCCNC(=O)[C@@H](N)CCCN [Example 14, SPM(Orn)8 Hydrochloride]	> 10000 µg/mL	46%
